Earlier results, collected in patent US20260199282A1, “METHODS AND COMPOSITIONS FOR IMPROVING DRIVING PERFORMANCE” (priority 2022, published 2026).

System: patients with narcolepsy or idiopathic hypersomnia
Details: modafinil 400 mg/day; ~1.5 hours post-dose; cited from earlier work

In the case of `NC(=O)C[S+]([O-])C(c1ccccc1)c1ccccc1` (stereo not shown) [modafinil], the “mean SDLP” value is listed as 23.6±0.6 cm.
